Measurements taken from patent US20100298141A1, “SUBSTITUTED PYRIDINE N-OXIDE HERBICIDES” (E. I. DU PONT DE NEMOURS AND COMPANY, priority 2007, published 2010).

How the values were obtained:
downy bromegrass = assay: Test D preemergence test; format: in vivo, Bromus tectorum; conditions: scale 0 to 100
Description: (§1) Seeds of plant species selected from annual bluegrass (Poa annua), blackgrass (Alopecurus myosuroides), downy bromegrass (Bromus tectorum), field violet (Viola arvensis), green foxtail (Setaria viridis), Italian ryegrass (Lolium multiflorum), littleseed canarygrass (Phalaris minor), spring wheat (Triticum aestivum), wild oat (Avena fatua), […]), winter barley (Hordeum vulgare), and winter wheat (Triticum aestivum) were planted and treated preemergence with test chemicals formulated in a non-phytotoxic solvent mixture which included a surfactant. […] A dash (-) response means no test result.

johnsongrass = assay: Test F preemergence test; format: in vivo, Sorghum halepense; conditions: scale 0 to 100
Summary of the method: (§2)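 Compound in a non-phytotoxic solvent blend with surfactant is applied preemergence to planted seeds or postemergence to sugarcane plants. Plants and controls stay in the greenhouse 14 to 21 days before visual comparison.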

common chickweed = assay: Test F preemergence test; format: in vivo, Stellaria media; conditions: scale 0 to 100
Summary of the method: as §2

chickweed = assay: Test C postemergence test; format: in vivo, Stellaria media; conditions: for Plant response rating (0 to 100), Chickweed: 31 g ai/ha; for Plant response rating, Chickweed: scale 0 to 100, 0 no effect, 100 complete control
Summary of the method: (§3)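 Postemergence sprays of formulated test chemicals on plants 2 to 18 cm tall (1- to 4-leaf stage). Greenhouse hold for 13 to 15 days, then visual rating of each species against untreated controls; dash means no test result.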

common sowthistle = assay: Test F preemergence test; format: in vivo, Sonchus oleraceous; conditions: scale 0 to 100
Summary of the method: as §2

winter barley = assay: Test C postemergence test; format: in vivo, Hordeum vulgare; conditions: for Plant response rating (0 to 100), Barley: 31 g ai/ha; for Plant response rating, Barley: scale 0 to 100, 0 no effect, 100 complete control
Summary of the method: as §3

windgrass [1] = assay: Test C pre-/postemergence test; format: in vivo, Apera spica-venti; conditions: Postemergence; for Plant response rating, Windgrass: scale 0 to 100, 0 no effect, 100 complete control
windgrass [2] = assay: Test D preemergence test; format: in vivo, Apera spica-venti; conditions: scale 0 to 100
Description: as §1

Russian thistle = assay: Test F preemergence test; format: in vivo, Salsola kali; conditions: scale 0 to 100
Description: Seeds of plant species selected from bermudagrass (Cynodon dactylon), Surinam grass (Brachiaria decumbens), large crabgrass (Digitaria sanguinalis), green foxtail (Setaria viridis), goosegrass (Eleusine indica), johnsongrass (Sorghum halepense), kochia (Kochia scoparia), pitted morningglory (Ipomoea lacunosa), purple nutsedge (Cyperus rotundus), common ragweed (Ambrosia elation), mustard (Brassica nigra), guineagrass (Panicum maximum), […] (Paspalum dilatatum), barnyardgrass (Echinochloa crus-galli), southern sandbur (Cenchrus echinatus), common sowthistle (Sonchus oleraceous), prickly […] spinosa), Italian ryegrass (Lolium multiflorum), common purslane (Portulaca oleracea), broadleaf signalgrass (Brachiaria platyphylla), common groundsel (Senecio vulgaris), common chickweed (Stellaria media), Virginia dayflower (Commelina virginica), annual bluegrass (Poa annua), naked crabgrass (Digitaria nuda), […] cochinchinensis), quackgrass (Elytrigia repens), Canada horseweed (Conyza canadensis), field bindweed (Convolvulus arvensis), […] (Bidens bipinnata), common mallow (Malva sylvestris), Russian thistle (Salsola kali), and sugarcane (Saccharum officinarum) were planted and treated preemergence with test chemicals formulated in a non-phytotoxic solvent mixture which included a surfactant. At a different time, sugarcane was treated with postemergence applications of some of the test chemicals formulated in the same manner. Plants were approximately 3- to 4-leaf stage for the postemergence treatments. Treated plants and controls were maintained in a greenhouse for 14 to 21 days, after which time all species were compared to controls and visually evaluated. […] A dash (-) response means no test result.

canarygrass = assay: Test C postemergence test; format: in vivo, Phalaris minor; conditions: for Plant response rating (0 to 100), Canarygrass: 31 g ai/ha; for Plant response rating, Canarygrass: scale 0 to 100, 0 no effect, 100 complete control
Summary of the method: as §3

Canada horseweed = assay: Test F preemergence test; format: in vivo, Conyza canadensis; conditions: scale 0 to 100
Summary of the method: as §2

Structure (SMILES)	Plant response rating, Bromegrass, Downy (downy bromegrass; 31 g ai/ha)	Plant response rating, Bromegrass, Downy (downy bromegrass; 62 g ai/ha)	Plant response rating, Bromegrass, Downy (downy bromegrass; 125 g ai/ha)	Plant response rating, Bromegrass, Downy (downy bromegrass; 250 g ai/ha)	Johnsongrass plant response rating (johnsongrass; 62 g ai/ha, Preemergence)	Plant response rating, Johnsongrass (johnsongrass; Preemergence, 31 g ai/ha)	Plant response rating, Chickweed (common chickweed; 8 g ai/ha, preemergence)	Chickweed plant response rating (common chickweed; 62 g ai/ha, Preemergence)	Plant response rating, Chickweed (common chickweed; Preemergence, 16 g ai/ha)	Plant response rating, Chickweed (common chickweed; Preemergence, 31 g ai/ha)	Plant response rating (0 to 100), Chickweed (chickweed)	Plant response rating, Chickweed (chickweed; 62 g ai/ha)	Plant response rating, Chickweed (chickweed; 125 g ai/ha)	Plant response rating, Chickweed (chickweed; 250 g ai/ha)	Sowthistle plant response rating (common sowthistle; 62 g ai/ha, Preemergence)	Plant response rating, Sowthistle (common sowthistle; Preemergence, 31 g ai/ha)	Plant response rating, Windgrass (windgrass [2]; 31 g ai/ha)	Plant response rating, Windgrass (windgrass [2]; 62 g ai/ha)	Plant response rating, Windgrass (windgrass [2]; 125 g ai/ha)	Plant response rating, Windgrass (windgrass [2]; 250 g ai/ha)	also measured
Cc1cc[n+]([O-])c(S(=O)(=O)Cc2c(C(F)(F)F)nn(C)c2OC(F)F)c1 [Compound 2]	0	20	50	55	85	70	10	100	80	95	0	0	5	80	100	60	100	100	100	100	Plant response rating, Sowthistle (common sowthistle; 8 g ai/ha, preemergence): 0; Plant response rating, Sowthistle (common sowthistle; 16 g ai/ha, preemergence): 0; Plant response rating (0 to 100), Barley (winter barley): 0; Plant response rating, Barley (winter barley; 62 g ai/ha): 0; Plant response rating, Barley (winter barley; 125 g ai/ha): 0; Plant response rating, Barley (winter barley; 250 g ai/ha): 0; Plant response rating (0 to 100), Windgrass (windgrass [1]; 31 g ai/ha): 0; Plant response rating (0 to 100), Windgrass (windgrass [1]; 62 g ai/ha): 10; Plant response rating, Windgrass (windgrass [1]; 125 g ai/ha): 50; Plant response rating, Windgrass (windgrass [1]; 250 g ai/ha): 70; Plant response rating, Russian Thistle (Russian thistle; 8 g ai/ha, preemergence): 0; Plant response rating, Russian Thistle (Russian thistle; Preemergence, 16 g ai/ha): 0; Plant response rating, Russian Thistle (Russian thistle; Preemergence, 31 g ai/ha): 0; Plant response rating (0 to 100), Canarygrass (canarygrass): 0; Plant response rating, Canarygrass (canarygrass; 62 g ai/ha): 0; Plant response rating, Canarygrass (canarygrass; 125 g ai/ha): 0; Plant response rating, Canarygrass (canarygrass; 250 g ai/ha): 0
Cc1cc[n+]([O-])c([S+]([O-])Cc2c(C(F)(F)F)nn(C)c2OC(F)F)c1 (centres unmarked) [Compound 1]	0	30	40	40	90	90	40	100	60	98	50	65	90	90	70	30	10	70	100	100	Plant response rating, Johnsongrass (johnsongrass; 8 g ai/ha, preemergence): 35; Plant response rating, Johnsongrass (johnsongrass; Preemergence, 16 g ai/ha): 70; Plant response rating, Sowthistle (common sowthistle; 8 g ai/ha, preemergence): 0; Plant response rating, Sowthistle (common sowthistle; 16 g ai/ha, preemergence): 0; Plant response rating (0 to 100), Barley (winter barley): 0; Plant response rating, Barley (winter barley; 62 g ai/ha): 0; Plant response rating, Barley (winter barley; 125 g ai/ha): 0; Plant response rating, Barley (winter barley; 250 g ai/ha): 0; Plant response rating (0 to 100), Windgrass (windgrass [1]; 31 g ai/ha): 0; Plant response rating (0 to 100), Windgrass (windgrass [1]; 62 g ai/ha): 10; Plant response rating, Windgrass (windgrass [1]; 125 g ai/ha): 60; Plant response rating, Windgrass (windgrass [1]; 250 g ai/ha): 85; Plant response rating, Russian Thistle (Russian thistle; 8 g ai/ha, preemergence): 0; Plant response rating, Russian Thistle (Russian thistle; Preemergence, 16 g ai/ha): 0; Plant response rating, Russian Thistle (Russian thistle; Preemergence, 31 g ai/ha): 0; Plant response rating (0 to 100), Canarygrass (canarygrass): 0; Plant response rating, Canarygrass (canarygrass; 62 g ai/ha): 0; Plant response rating, Canarygrass (canarygrass; 125 g ai/ha): 0; Plant response rating, Canarygrass (canarygrass; 250 g ai/ha): 0
Cc1cc[n+]([O-])c(S(=O)(=O)C(Cl)c2c(C(F)(F)F)nn(C)c2Cl)c1 (racemic) [Compound 22]	0	20	20	35	60	50	–	100	0	65	–	–	–	–	90	90	100	100	100	100	Johnsongrass plant response rating (johnsongrass; 125 g ai/ha, preemergence): 100; Plant response rating, Johnsongrass (johnsongrass; Preemergence, 16 g ai/ha): 0; Chickweed plant response rating (common chickweed; 125 g ai/ha, preemergence): 100; Sowthistle plant response rating (common sowthistle; 125 g ai/ha, preemergence): 100; Russian Thistle plant response rating (Russian thistle; 125 g ai/ha, preemergence): 100; Horseweed plant response rating (Canada horseweed; 62 g ai/ha, Preemergence): 0; Horseweed plant response rating (Canada horseweed; 125 g ai/ha, preemergence): 100; Plant response rating, Horseweed (Canada horseweed; Preemergence, 16 g ai/ha): 0; Plant response rating, Horseweed (Canada horseweed; Preemergence, 31 g ai/ha): 0
Cn1nc(C(F)(F)F)c(C[S+]([O-])c2cccc[n+]2[O-])c1OC(F)F (centres unmarked) [Compound 3]	0	45	55	55	95	90	25	100	98	100	10	70	85	95	100	65	0	75	100	100	Plant response rating, Johnsongrass (johnsongrass; 8 g ai/ha, preemergence): 0; Plant response rating, Johnsongrass (johnsongrass; Preemergence, 16 g ai/ha): 65; Plant response rating, Sowthistle (common sowthistle; 8 g ai/ha, preemergence): 0; Plant response rating, Sowthistle (common sowthistle; 16 g ai/ha, preemergence): 0; Plant response rating (0 to 100), Barley (winter barley): 0; Plant response rating, Barley (winter barley; 62 g ai/ha): 0; Plant response rating, Barley (winter barley; 125 g ai/ha): 0; Plant response rating, Barley (winter barley; 250 g ai/ha): 0; Plant response rating (0 to 100), Windgrass (windgrass [1]; 31 g ai/ha): 0; Plant response rating (0 to 100), Windgrass (windgrass [1]; 62 g ai/ha): 0; Plant response rating, Windgrass (windgrass [1]; 125 g ai/ha): 20; Plant response rating, Windgrass (windgrass [1]; 250 g ai/ha): 70; Plant response rating, Russian Thistle (Russian thistle; 8 g ai/ha, preemergence): 0; Russian Thistle plant response rating (Russian thistle; 62 g ai/ha, Preemergence): 100; Plant response rating, Russian Thistle (Russian thistle; Preemergence, 16 g ai/ha): 0; Plant response rating, Russian Thistle (Russian thistle; Preemergence, 31 g ai/ha): 35; Plant response rating (0 to 100), Canarygrass (canarygrass): 0; Plant response rating, Canarygrass (canarygrass; 62 g ai/ha): 0; Plant response rating, Canarygrass (canarygrass; 125 g ai/ha): 0; Plant response rating, Canarygrass (canarygrass; 250 g ai/ha): 0
